target: T1, Tyrosine-protein kinase JAK3 (Homo sapiens, UniProt P52333); assay: ChEBML_91954
T1 sequence (P52333 whole entry): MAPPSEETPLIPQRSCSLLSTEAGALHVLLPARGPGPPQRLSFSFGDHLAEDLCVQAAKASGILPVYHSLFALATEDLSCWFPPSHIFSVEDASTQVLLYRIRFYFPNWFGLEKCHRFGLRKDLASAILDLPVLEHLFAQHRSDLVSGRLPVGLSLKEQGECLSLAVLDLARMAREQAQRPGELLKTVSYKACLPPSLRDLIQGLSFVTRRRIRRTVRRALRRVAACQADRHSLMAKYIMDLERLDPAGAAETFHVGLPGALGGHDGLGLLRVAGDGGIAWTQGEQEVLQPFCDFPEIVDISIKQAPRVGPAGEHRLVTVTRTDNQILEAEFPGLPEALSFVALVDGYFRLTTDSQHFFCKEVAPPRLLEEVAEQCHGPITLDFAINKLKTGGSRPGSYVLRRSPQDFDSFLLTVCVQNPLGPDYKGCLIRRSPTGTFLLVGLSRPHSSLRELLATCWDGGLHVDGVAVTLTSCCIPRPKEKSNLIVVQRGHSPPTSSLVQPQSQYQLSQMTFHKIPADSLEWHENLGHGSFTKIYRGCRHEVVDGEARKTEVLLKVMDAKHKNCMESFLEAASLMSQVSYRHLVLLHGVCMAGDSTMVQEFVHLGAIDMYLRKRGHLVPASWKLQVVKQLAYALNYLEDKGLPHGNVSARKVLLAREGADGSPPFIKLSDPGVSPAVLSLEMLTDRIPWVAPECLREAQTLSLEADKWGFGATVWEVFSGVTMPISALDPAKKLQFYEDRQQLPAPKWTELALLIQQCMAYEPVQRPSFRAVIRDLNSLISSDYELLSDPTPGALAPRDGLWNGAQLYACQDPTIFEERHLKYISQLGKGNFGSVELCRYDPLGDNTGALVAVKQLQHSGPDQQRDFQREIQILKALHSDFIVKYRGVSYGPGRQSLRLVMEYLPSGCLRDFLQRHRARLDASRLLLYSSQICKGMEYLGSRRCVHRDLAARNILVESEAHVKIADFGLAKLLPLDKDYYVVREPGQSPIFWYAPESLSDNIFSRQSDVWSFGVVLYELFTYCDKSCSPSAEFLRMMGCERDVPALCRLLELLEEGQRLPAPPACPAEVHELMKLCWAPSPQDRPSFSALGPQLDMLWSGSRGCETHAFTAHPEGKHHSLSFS
Text: (§1) In vitro inhibition of Janus kinase 3.

Structure (SMILES) | IC50 [µM]
N#C/C(=C\c1ccc(O)c(O)c1)C(=O)NCc1ccccc1 | 12.6
C=CC(=O)c1ccc2ccccc2c1 [Thr1 inhibitor, 1] | 0.0794
CC(C)N(CCC(=O)c1ccc2ccccc2c1)Cc1ccccc1 | 0.0794
CC(=Cc1ccccc1)C(=O)CCN1CCOCC1 | 12.6
C=CC(O)c1ccc2ccccc2c1 (stereo not drawn) | 501
COc1cc2ccc(C(=O)CCN3CCOCC3)cc2cc1OC | 200
O=C(C=Cc1ccccc1Cl)CCN1CCOCC1 | 12.6
CN(C)CCC(=O)c1ccc2ccccc2c1 | 0.63

Next, values leading:

IC50 [µM] | Structure (SMILES)
2 | O=C(CCN1CCOCC1)c1ccc2ccccc2c1
0.794 | O=C(CCN1CCCCCC1)c1ccc2ccccc2c1
15.8 | COc1ccc2cc(C(=O)CCN3CCOCC3)ccc2c1
3.16 | O=C(CCN1CCOCC1)c1cccc2ccccc12
0.501 | O=C(CCN1CCOCC1)c1ccc2ccc3ccccc3c2c1

target: T1, Tyrosine-protein kinase JAK3; assay: as §1

Structure (SMILES) | IC50 [µM]
O=c1c(CN2CCOCC2)coc2cc3ccccc3cc12 | > 1000
CC(C)(CN1CCOCC1)C(=O)c1ccc2ccccc2c1 | > 1000
O=C(CCNCc1ccccc1)c1ccc2ccccc2c1 | > 1000

Next, values leading:

IC50 [µM] | Structure (SMILES)
> 1000 | ON=C(CCN1CCOCC1)c1ccc2ccccc2c1
> 1000 | O=C(CCCN1CCOCC1)c1ccc2ccccc2c1

Source: BindingDB's records for doi:10.1016/s0960-894x(00)00051-2 (Astrazeneca, 2000)
